Experimental data taken from ChEMBL document CHEMBL1148522 (J Med Chem, 2006).

Target: Proto-oncogene tyrosine-protein kinase Src (Homo sapiens, UniProt P12931)
Experiment: Inhibition of SRC using polyE4Y as substrate

Chain of Proto-oncogene tyrosine-protein kinase Src (P12931 2-536 limits assumed): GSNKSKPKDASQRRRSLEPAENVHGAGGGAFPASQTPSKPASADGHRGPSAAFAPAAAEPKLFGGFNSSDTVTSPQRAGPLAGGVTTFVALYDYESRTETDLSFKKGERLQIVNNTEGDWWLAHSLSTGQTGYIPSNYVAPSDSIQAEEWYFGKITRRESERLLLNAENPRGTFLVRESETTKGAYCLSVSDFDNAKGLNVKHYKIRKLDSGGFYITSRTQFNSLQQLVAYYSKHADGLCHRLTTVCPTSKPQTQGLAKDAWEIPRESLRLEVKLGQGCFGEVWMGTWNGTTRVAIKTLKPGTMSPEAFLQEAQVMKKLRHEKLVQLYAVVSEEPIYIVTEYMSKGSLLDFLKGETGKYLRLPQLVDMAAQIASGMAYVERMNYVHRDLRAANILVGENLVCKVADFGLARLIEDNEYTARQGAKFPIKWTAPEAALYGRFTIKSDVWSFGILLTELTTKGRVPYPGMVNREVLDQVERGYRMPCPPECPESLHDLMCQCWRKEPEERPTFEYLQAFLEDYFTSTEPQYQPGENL

SMILES | IC50 [µM]
CC[C@H](C)[C@H](NC(=O)[C@H](CS)NC(C)=O)C(=O)N[C@@H](Cc1ccc(O)cc1)C(=O)N[C@@H](CCCCN)C(=O)N[C@@H](Cc1ccc(O)cc1)C(=O)N[C@@H](Cc1ccc(N)cc1)C(=O)O | > 700
CC[C@H](C)[C@H](NC(=O)[C@H](CS)NC(C)=O)C(=O)N[C@@H](Cc1ccc(O)cc1)C(=O)N[C@@H](CCCCN)C(=O)N[C@@H](Cc1ccc(NS(C)(=O)=O)cc1)C(=O)N[C@@H](Cc1ccc(O)cc1)C(=O)O | > 700
